# Assay results from patent US20190048321A1, “Macrophage Enrichment of Cancer Stem Cells” (UNIVERSITY OF SOUTH CAROLINA, priority 2017, published 2019).
# Key:
# [1] = system: CSCs in MDA-MB-231 breast tumor cells; assay: 3D PEGDA hydrogel co-culture of MDA-MB-231 cancer cells with macrophages treated with Paclitaxel (MDA+Mac/PTX); assay type: cell-based, human
# Experimental: (§1) Polyethylene glycol was functionalized with acrylate end-groups by reaction with acryloyl chloride using well-established procedures to generate a photopolymerizable polyethylene glycol diacrylate (PEGDA). The PEGDA and a photoinitiator (4-(2-hydroxyethoxy)phenyl-(2-hydroxy-2-propyl) ketone (commercial name Irgacure-2959)) were dissolved in aqueous solution to generate a hydrogel precursor solution. Prior to cure, the hydrogel precursor solution was combined with MDA-MB-231 human breast cancer cells alone (MDA), with human spleen-derived macrophages alone (Mac) or with both (MDA+Mac).
# (§2) To form the matrices, the cancer cells and/or macrophages were suspended in the PEGDA hydrogel precursor solution, the suspension was pipetted in a tissue culture plate as a thin film, and the film was photopolymerized with UV radiation to encapsulate the cells in the hydrogel matrix.
# (§3) This co-culture system was also used to screen Paclitaxel (PTX) toxicity against CSCs. […] MDA cancer cells cultured alone with no PTX (MDA) grew by forming tumor spheres with mixed population of stem and differentiated cells and as shown the growing cells expressed CSC markers.
# MDA-MB-231 cells = details: 2D tissue culture plates, previous studies; cited from earlier work
# [2] = system: MDA-MB-231 human breast cancer cells; assay: 3D PEGDA hydrogel culture of MDA-MB-231 cancer cells alone treated with Paclitaxel (MDA+PTX); assay type: cell-based
# Experimental: as §1, §2, §3
compound,measurement,setting,value
"CC(=O)O[C@H]1C(=O)[C@@]2(C)[C@H]([C@H](OC(=O)c3ccccc3)[C@]3(O)C[C@H](OC(=O)[C@H](O)[C@@H](NC(=O)c4ccccc4)c4ccccc4)C(C)=C1C3(C)C)[C@]1(OC(C)=O)CO[C@@H]1C[C@@H]2O [PTX, Paclitaxel]",cell growth / cell content,"[1]; MDA cancer cells with macrophages in 5 kPa PEGDA matrix, treated with PTX (FIG. 4a)",effective in halting cell growth and the cell content decreased
same,"expression of CSC markers (CD44, ABCG2, EGFR)","[1]; MDA cancer cells with macrophages treated with PTX, with incubation (FIG. 4b-d)",sharply increased
same,effectiveness against CSCs,"[1]; MDA+Mac/PTX co-culture screen, MDA-MB-231 breast tumor cells",ineffective against CSCs
same,effectiveness against MDA-MB-231 cells,MDA-MB-231 cells,effective
same,cell number,[2]; MDA cancer cells alone treated with PTX (MDA+PTX) (FIG. 4a),increased somewhat
same,expression of CSC markers,[2]; MDA cancer cells alone treated with PTX (MDA+PTX) (FIG. 4b-d),increased significantly
